Test results reported in the NIST ThermoML archive (doi:10.1016/j.jct.2013.06.020).

What was measured:
[1] = 298.15 K, 101.33 kPa, Liquid; for speed of sound: Sing-around technique in a fixed-path interferometer; for mass density: Vibrating tube method
[2] = mn = molality of the nth substance listed, in mol/kg; settings: 298.15 K, 101 kPa, Liquid; for speed of sound: Sing-around technique in a fixed-path interferometer; for mass density: Vibrating tube method

CCOC(=O)C(C)O (racemic) [DL-ethyl lactate]
[1]
Settings	mass density [kg/m3]	speed of sound [m/s]
–	1028.37	1279.7

O=Cc1ccco1 [2-furaldehyde]
[1]
Settings	mass density [kg/m3]	speed of sound [m/s]
–	1154.81	1440.2

OCc1ccco1 [2-hydroxymethylfuran]
[1]
Settings	mass density [kg/m3]	speed of sound [m/s]
–	1130.27	1449.8

OCC1CCCO1 (stereo not given) [2-tetrahydrofurylmethanol]
[1]
Settings	mass density [kg/m3]	speed of sound [m/s]
–	1050.75	1485.2

Cc1ccc(C=O)o1 [5-methylfurfural]
[1]
Settings	mass density [kg/m3]	speed of sound [m/s]
–	1103.2	1447

CCCCOC(=O)C(C)O (stereo not given) [butyl 2-hydroxypropanoate]
[1]
Settings	mass density [kg/m3]	speed of sound [m/s]
–	977.283	1285

CCCCOC(=O)CCC(C)=O [butyl levulinate]
[1]
Settings	mass density [kg/m3]	speed of sound [m/s]
–	969.935	1341.3

CCOC(=O)CCC(C)=O [ethyl levulinate]
[1]
Settings	mass density [kg/m3]	speed of sound [m/s]
–	1007.54	1351.2

COC(=O)C(C)O (stereo not given) [methyl 2-hydroxypropanoate]
[1]
Settings	mass density [kg/m3]	speed of sound [m/s]
–	1087.43	1338.8

COC(=O)CCC(C)=O [methyl levulinate]
[1]
Settings	mass density [kg/m3]	speed of sound [m/s]
–	1045.4	1386.2

COC(=O)CCC(C)=O [methyl levulinate] + O
[2]
Settings	mass density [kg/m3]	speed of sound [m/s]
m1 = 0.0322	997.582	1499.2
m1 = 0.0375	997.646	1499.4
m1 = 0.0399	997.675	1499.7
m1 = 0.042	997.701	1499.7
m1 = 0.0537	997.774	1500
m1 = 0.0724	998.063	1500.9
m1 = 0.0737	998.08	1501
m1 = 0.1127	998.543	1503.2
m1 = 0.1571	999.079	1505.7
m1 = 0.1949	999.523	1507.7
m1 = 0.2491	1000.15	1510.6
m1 = 0.3297	1001.08	1514.6
m1 = 0.3905	1001.76	1517.5
m1 = 0.4721	1002.66	1521.3
m1 = 0.5562	1003.58	1525.1
m1 = 0.6293	1004.35	1527.8
m1 = 0.7107	1005.19	1530.9
m1 = 0.7782	1005.87	1533.4
m1 = 0.9597	1007.31	1539.2
m1 = 1.161	1008.76	1544.8

C=CC(=O)OC [methyl propenoate]
[1]
Settings	mass density [kg/m3]	speed of sound [m/s]
–	949.174	1169

C=CC(=O)OC [methyl propenoate] + O
[2]
Settings	mass density [kg/m3]	speed of sound [m/s]
m1 = 0.0393	997.315	1498.3
m1 = 0.0445	997.337	1498.7
m1 = 0.0475	997.348	1498.9
m1 = 0.0543	997.381	1499.1
m1 = 0.0631	997.409	1499.5
m1 = 0.0712	997.451	1499.9
m1 = 0.0962	997.547	1500.9
m1 = 0.1341	997.677	1502.1
m1 = 0.1473	997.72	1502.6
m1 = 0.1826	997.809	1503.8
m1 = 0.2485	998.068	1506.2
m1 = 0.3666	998.512	1510.6
m1 = 0.4288	998.73	1513.1
m1 = 0.5131	999.004	1516.7
